According to patent US20150342195A1, “ANTI-MICROBIAL COMPOSITIONS, PREPARATIONS, METHODS, AND USES” (MYCO SCIENCES LIMITED, priority 2014, published 2015):
Where two headings read alike, the source gives them in different places.

Assays:
Magnaporthe oryzae = assay: microbe, parasite or virus in culture; type: cell-based; conditions: for Average diameter of fungal growth: Cu—Zn#12 0%, plug subtracted
Fusarium graminearum = assay: microbe, parasite or virus in culture; type: cell-based; conditions: for IC50: Fusarium graminearum
Botrytis cinerea = assay: Fungal growth inhibition assay (hyphal growth diameter on PDA); type: cell-based; conditions: for IC50: Botrytis cinerea
Rhizoctonia solani = assay: as above; type: cell-based; conditions: for IC50: Rhizoctonia solani
Alternaria alternata = assay: as above; type: cell-based; conditions: for IC50: Alternaria alternata
Ustilago maydis = assay: as above; type: cell-based; conditions: for IC50: Mycosarcoma maydis
Aspergillus niger = assay: as above; type: cell-based; conditions: for IC50: Aspergillus niger
[1] = test system: Mycosphaerella graminicola; assay: as above; type: cell-based
Protocol: The fungal strains used in these studies are described in TABLE 2. The strains were routinely cultured in 9 centimeter Petri dishes containing 10 milliliters of potato dextrose agar (PDA) at room temperature (22° C.) apart from U. maydis (28° C.).
(§1) To assess the effects of compositions on fungal growth, 10 microliters of the test compositions diluted in sterile distilled water were placed in the wells of a 12-well tissue culture plate and 1 milliliter of liquid PDA was added by pipette to each well. Where multiple samples were added to each well, the 10 microliter drops were kept separate until they were mixed by the addition of hot liquid PDA and the plate was then agitated to evenly distribute the test composition(s) evenly through the agar (distilled water was used as vehicle control) and then the agar was allowed to set. […] To assess the effects of compositions on fungal growth in all experiments, the diameter of the hyphal growth was measured twice at a 90° angle using a ruler and the average diameter in millimeters was calculated. If no fungal growth could be detected by eye, the cultures were observed by phase microscopy (40×) to confirm that there was no growth (NG).

plant pathogenic fungi = assay: organism not typed; type: cell-based; conditions: for fungal growth with KS: 1000 milligrams/liter KS
Trichophyton rubrum = assay: Fungal growth inhibition assay with Trichophyton rubrum; type: cell-based
Protocol: as §1, with “set. For most strains (see TABLE 2), plugs of agar containing fungal hyphae (2 to 3 millimeters in diameter) from the edge of an established fungal culture were carefully cut out using a scalpel and inserted into holes cut in the centre of the agar in each well of the 12-well plate. With B. cinerea and U. maydis, mature cultures were washed with 3 ml of sterile distilled water and the spore suspensions obtained were adjusted to O.D. (at 600 nanometers) of 1.0 and 1.5, respectively. A small hole (˜1 millimeter) was made in the center of the PDA in each well with a yellow pipette tip and 1.5 microliters of spore suspension was carefully pipetted into the hole.” for “set.”
A clinical isolate of T. rubrum (strain 7107996; Phylum: Acomycota) was kindly provided by Dr. Richard Barton, Leeds University, UK. The growth assays with T. rubrum were as described in EXAMPLE 1, except this strain was cultured at 33° C. on PDA for 6 or 7 days when growth was assessed. T. rubrum cultures were maintained on Sabouraud dextrose agar at 33° C.
FIG. 8 is a graph depicting the effects of selected compositions and compounds on the growth of Trichophyton rubrum. The culture period was 7 days. Growth in the control cultures was 20±0 millimeters (mean±SD for 2 experiments).

[2] = test system: Pseudomonas syringae (pv. tomato DC3000); assay: Bacterial microplate culture (resazurin MIC); type: cell-based; conditions: Pseudomonas syringae; 24 hours at 28° C.; highest concentration 400 mg/L (1% of stock solutions); read-out: MIC
[3] = test system: Ralstonia solanacearum (strain PSS4 from tomato); assay: microbe, parasite or virus in culture; type: cell-based; conditions: Ralstonia solanacearum, 24 h
[4] = test system: Xanthomonas oryzae (strain Gx0372); assay: microbe, parasite or virus in culture; type: cell-based; conditions: Xanthomonas oryzae, 24 h
[5] = test system: Xanthomonas campestris (strain Race 5 from brassica); assay: Bacterial microplate culture (resazurin MIC); type: cell-based; conditions: Xanthomonas campestris; 24 hours at 28° C.; highest concentration 400 mg/L (1% of stock solutions); read-out: MIC
[6] = test system: 4 plant pathogenic bacterial strains; conditions: KS at ≧10,000 milligrams/liter, any strain
[7] = read-out: Potassium sorbate IC50, mean ± SD, PDA
[8] = read-out: Potassium sorbate IC50, single experiments, PDA

## C/C=C/C=C/C(=O)[O-].[K+] [Potassium sorbate]
Magnaporthe oryzae; KS 10 mg/L, PDA
  Average diameter of fungal growth: 17 mm
Magnaporthe oryzae; KS 30 mg/L, PDA
  Average diameter of fungal growth: 17 mm
Magnaporthe oryzae; KS 100 mg/L, PDA
  Average diameter of fungal growth: 15 mm
Magnaporthe oryzae; KS 150 mg/L, PDA
  Average diameter of fungal growth: 14 mm
Magnaporthe oryzae; KS 300 mg/L, PDA
  Average diameter of fungal growth: 9 mm
Magnaporthe oryzae; KS 10 milligrams/liter alone
  effect on fungal growth alone: no effect
Magnaporthe oryzae; PDA, NG = no fungal growth
  Minimum KS concentration required for NG: 1000 mg/L
Magnaporthe oryzae; Pyricularia oryzae, read-out: Potassium sorbate IC50, mean ± SD, PDA
  IC50: 140 µg/mL
Magnaporthe oryzae; in the presence of […] Cu—Zn#12
  KS concentration that completely inhibited growth: 30 milligrams/liter
Magnaporthe oryzae; with […] Cu—Zn#12 versus KS alone
  times lower KS concentration for complete inhibition: 33 times
Fusarium graminearum; [7]
  IC50: 185 µg/mL
Fusarium graminearum; [8]
  IC50: 150 µg/mL
Fusarium graminearum; PDA
  Potassium sorbate IC50, single experiments: 220 µg/mL
Fusarium graminearum; PDA, NG = no fungal growth
  Minimum KS concentration required for NG: 1000 mg/L
Botrytis cinerea; [7]
  IC50: 175 µg/mL
Botrytis cinerea; [8]
  IC50: 200 µg/mL
Botrytis cinerea; PDA
  Potassium sorbate IC50, single experiments: 150 µg/mL
Botrytis cinerea; PDA, NG = no fungal growth
  Minimum KS concentration required for NG: 1000 mg/L
Rhizoctonia solani; PDA
  Potassium sorbate IC50, single experiments: 100 µg/mL
Rhizoctonia solani; PDA, NG = no fungal growth
  Minimum KS concentration required for NG: 1000 mg/L
Rhizoctonia solani; [7]
  IC50: 91 µg/mL
Rhizoctonia solani; [8]
  IC50: 73 µg/mL
Alternaria alternata; [7]
  IC50: 190 µg/mL
Alternaria alternata; [8]
  IC50: 180 µg/mL
Alternaria alternata; PDA
  Potassium sorbate IC50, single experiments: 200 µg/mL
Alternaria alternata; PDA, NG = no fungal growth
  Minimum KS concentration required for NG: 300 mg/L
Ustilago maydis; read-out: KS IC50, PDA
  IC50: 0.077 µg/mL
Ustilago maydis; [7]
  IC50: 77 µg/mL
Ustilago maydis; [8]
  IC50: 74 µg/mL
Ustilago maydis; PDA
  Potassium sorbate IC50, single experiments: 80 µg/mL
Ustilago maydis; PDA, NG = no fungal growth
  Minimum KS concentration required for NG: 300 mg/L
Aspergillus niger; [7]
  IC50: 91 µg/mL
Aspergillus niger; [8]
  IC50: 82 µg/mL
Aspergillus niger; PDA
  Potassium sorbate IC50, single experiments: 100 µg/mL
Aspergillus niger; PDA, NG = no fungal growth
  Minimum KS concentration required for NG: 300 mg/L
[1]; NG = no fungal growth
  Minimum KS concentration required for NG: 300 mg/L
[1]; Zymoseptoria tritici, read-out: Potassium sorbate IC50, single experiment
  IC50: 150 µg/mL
Plant pathogenic fungi; 300 milligrams/liter KS, eight strains tested
  number of fungal strains whose growth was completely inhibited: 4 strains
Plant pathogenic fungi; all eight fungal strains
  fungal growth with KS: completely inhibited
Plant pathogenic fungi; five fungal strains of FIG. 2
  fungal growth with KS: no growth
Plant pathogenic fungi; read-out: KS IC50 range on plant pathogenic fungi
  IC50: 77 to 190 µg/mL
Trichophyton rubrum; KS 100 milligrams/liter on its own
  inhibition of fungal growth: 6%
Trichophyton rubrum; KS alone (FIG. 9)
  KS concentration required for complete inhibition of fungal growth: 300 milligrams/liter
Trichophyton rubrum; PDA, 33° C., 7 days
  T. rubrum IC50 values: % of stock solution: 0.017 % of stock solution
Trichophyton rubrum; Trichophyton rubrum, 168 h, PDA, 33° C., 7 days, Cu—Zn#12: 50% each of elemental copper and zinc, read-out: T. rubrum IC50 values: Concentration
  IC50: 17 µg/mL
[2]
  MIC: > 10000 µg/mL
[3]
  MIC: > 10000 µg/mL
[4]
  MIC: > 10000 µg/mL
[5]
  MIC: > 10000 µg/mL
[6]
  effect on bacterial growth: no effect
